In patent publication US12402622B2, “Agricultural compositions and methods of use thereof” (Valent U.S.A. LLC, priority 2019, dated 2025):

Key:
crabgrass = assay: Control of crabgrass (10 inches), spray chamber, sugar alcohol rate series, Example 3; type: in vivo, Digitaria sanguinalis; details: for control of crabgrass relative to S-3100 alone: 7 and 14 DAT, sugar alcohol at 1700, 3400, 6800, 13600 and 27200 g/HA with S-3100; for % control: S-3100 20 g/HA alone
Method: (§1) 12 trials were conducted on the efficacy of S-3100 with or without mannitol or sorbitol at various application rates. Specifically, 12 plots of crabgrass were grown to 10 inches in height. These plots were placed in a spray chamber for treatment. All compositions contained 1% v/v of Agridex® and 0.25% v/v of Induce®. Treatments and results can be found in Table 3, below.

volunteer corn = assay: Control and lodging of volunteer corn (14 inches), spray chamber, sugar alcohol rate series, Example 4; type: in vivo; details: for lodging on addition of the sugar alcohol to S-3100: addition to S-3100, rate not given; for control of volunteer corn relative to S-3100 alone: sugar alcohol at 1700, 3400, 6800, 13600 and 27200 g/HA with S-3100
Method: as §1, with “of volunteer corn” for “of crabgrass”, “to 14” for “to 10”, “Table 4,” for “Table 3,”

barnyard grass [1] = assay: Control of barnyard grass (10 inches), spray chamber, sugar alcohol rate series, Example 5; type: in vivo, Echinochloa crus-galli; details: for control of barnyard grass relative to S-3100 alone: 7 and 14 DAT, sugar alcohol at 1700, 3400, 6800, 13600 and 27200 g/HA with S-3100; for % control: S-3100 20 g/HA alone
Method: as §1, with “barnyard grass” for “crabgrass”, “5,” for “3,”

[2] = test system: soybean petioles/leaves at V6 stage; assay: Soybean petiole detached assay (translocation of S-3100), Example 6; type: in vivo; details: 21 DAT, S-3100 20 g/HA, mannitol or sorbitol 6800 g/HA, FIG. 1
Method: FIG. 1. Soybean plant leaf at V6 stage. A. untreated control. B. Treated with 20 g/HA S-3100. C. Treated with 6800 g/HA mannitol. D. Treated with 6800 g/HA sorbitol. E. Treated with 20 g/HA S-3100 and 6800 g/HA mannitol. F. Treated with 20 g/HA S-3100 and 6800 g/HA sorbitol.
4 plots of soybeans were grown to the V6 stage. Soybean petioles of plants at the V6 stage were treated in a petiole detached assay with 1 of the following 4 treatments: 1) untreated; 2) 20 g/HA S-3100; 3) 20 g/HA S-3100 and 6800 g/HA mannitol or 4) 20 g/HA S-3100 and 6800 g/HA sorbitol. Results were recorded 21 DAT. Results can be seen in FIG. 1.

barnyard grass [3] = assay: Control of barnyard grass (6 inches), spray chamber, Example 1; type: in vivo, Echinochloa crus-galli; details: S-3100 20 g/HA, mannitol or sorbitol 6800 g/HA where combined
Method: 4 trials were conducted on the efficacy of ethyl [3-[2-chloro-4-fluoro-5-(1-methyl-6-trifluoromethyl-2,4-dioxo-1,2,3,4-tetrahydropyrimidin-3-yl)phenoxy]-2-pyridyloxy]acetate (“S-3100”) with or without mannitol or sorbitol. Specifically, 4 plots of barnyard grass were grown to 6 inches in height. These plots were placed in a spray chamber for treatment. All compositions contained 1% v/v of Agridex® and 0.25% v/v of Induce®. Treatments and results can be found in Table 1, below.

corn = assay: Control of corn (12 inches), spray chamber, Example 2; type: in vivo; details: S-3100 20 g/HA, mannitol or sorbitol 6800 g/HA where combined
Method: 4 trials were conducted on the efficacy of S-3100 with or without mannitol or sorbitol. Specifically, 4 plots of corn were grown to 12 inches in height. These plots were placed in a spray chamber for treatment. All compositions contained 1% v/v of Agridex® and 0.25% v/v of Induce®. Treatments and results can be found in Table 2, below.

Compound | control of crabgrass relative to S-3100 alone (crabgrass) | lodging on addition of the sugar alcohol to S-3100 (volunteer corn) | control of volunteer corn relative to S-3100 alone (volunteer corn) | control of barnyard grass relative to S-3100 alone (barnyard grass [1]) | leaf symptoms (necrosis, yellowing, bronzing) as sign of translocation [2] | % control (barnyard grass [3]; 2 days after treatment, 1% v/v Agridex, 0.25% v/v Induce) [%] | % control (barnyard grass [3]; 7 days after treatment) [%] | % control (barnyard grass [3]; 13 days after treatment) [%] | % control (barnyard grass [3]; 20 days after treatment) [%] | % control (corn; 9 days after treatment, 1% v/v Agridex, 0.25% v/v Induce) [%] | % control (corn; 13 days after treatment) [%] | % control (corn; 22 days after treatment) [%] | % control (crabgrass; 7 DAT) [%] | % control (crabgrass; 14 DAT) [%] | % control (volunteer corn; 7 DAT, S-3100 20 g/HA alone) [%] | % lodging (volunteer corn; 8 DAT, S-3100 20 g/HA alone) [%] | % control (barnyard grass [1]; 7 DAT) [%] | % control (barnyard grass [1]; 14 DAT) [%]
OC[C@@H](O)[C@@H](O)[C@H](O)[C@@H](O)CO [sorbitol] | increase control of crabgrass over S-3100 alone | 100% | increase control of volunteer corn over S-3100 alone | increase control of barnyard grass over S-3100 alone |  |  |  |  |  |  |  |  |  |  |  |  |  | 
OC[C@@H](O)[C@@H](O)[C@H](O)[C@H](O)CO [mannitol] | increase control of crabgrass over S-3100 alone | did not increase lodging | increase control of volunteer corn over S-3100 alone | increase control of barnyard grass over S-3100 alone | necrotic areas on the leaf tissue |  |  |  |  |  |  |  |  |  |  |  |  | 
CCOC(=O)COc1ncccc1Oc1cc(-n2c(=O)cc(C(F)(F)F)n(C)c2=O)c(F)cc1Cl [S-3100, ethyl [3-[2-chloro-4-fluoro-5-(1-methyl-6-trifluoromethyl-2,4-dioxo-1,2,3,4-tetrahydropyrimidin-3-yl)phenoxy]-2-pyridyloxy]acetate] |  |  |  |  | leaf yellowing and vein necrosis especially on the main vascular tissue | 27.2 | 72.1 | 49.3 | 40 | 55.8 | 52.5 | 25 | 81.3 | 76.9 | 80.6 | 75 | 94.1 | 89.1
